This note sets out measurements from patent US20150011466A1, “APJ Receptor Compounds” (priority 2012, published 2015).

Like-named read-outs stand apart in the source and are kept apart here. Where a SMILES comes first, the peptide text is derived from it. [ ]: non-standard residue; d: D form. The star is where a group is joined. Palmitoyl = CCCCCCCCCCCCCCCC(=O)*; Aib = CC(C)(N)C(=O)O

The target in series [1] is T1, APJ receptor (Homo sapiens, UniProt P35414).
T1 construct: expressed in transfected cells; host or cells: Human TRex cells (doxycycline-inducible)
T1 sequence (P35414 1-380): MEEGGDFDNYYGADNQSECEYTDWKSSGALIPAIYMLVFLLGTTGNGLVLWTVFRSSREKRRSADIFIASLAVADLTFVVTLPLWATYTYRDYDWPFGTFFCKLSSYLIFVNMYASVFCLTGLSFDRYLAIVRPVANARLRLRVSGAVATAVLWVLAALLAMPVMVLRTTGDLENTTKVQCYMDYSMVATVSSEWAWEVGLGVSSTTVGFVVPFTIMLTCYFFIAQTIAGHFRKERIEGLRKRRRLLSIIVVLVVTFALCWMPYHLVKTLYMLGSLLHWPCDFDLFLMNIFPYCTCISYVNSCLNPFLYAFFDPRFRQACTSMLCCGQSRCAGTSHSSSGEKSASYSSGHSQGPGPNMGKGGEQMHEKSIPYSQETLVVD
Kind of series: HTRF cAMP assay, inhibition of NKH477 stimulated cAMP in Human TRex cells expressing APJ upon doxycycline induction (APJ-hTREX). It counts as cell-based. As to conditions: for Ranking: class combining EC50 and % histamine; for percent intrinsic activity at 0.3 µM: read-out: % IA (@ 300 nM). A digest of the protocol:
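Cells stimulated with NKH477 and cAMP measured by HTRF competitive immunoassay (cryptate anti-cAMP antibody, d2-labeled cAMP). APJ-hTREX cells induced with […] doxycycline and seeded overnight at 40 k/well.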

Series [2] in a line: Histimine (% vs. 48/40).

In general, EC50 refers to the midpoint of the concentration-response curve.

Regarding `CCCCCCCCCCCCCCCC(=O)N[C@H](C(=O)N[C@H](C(=O)N[C@@H](Cc1ccccc1)C(=O)N[C@@H](CCCNC(=N)N)C(=O)N[C@@H](CO)C(=O)N[C@@H](Cc1c[nH]cn1)C(=O)N[C@@H](CCC(=O)O)C(=O)N[C@H](CCCCN)C(=O)N[C@@H](CCCNC(=N)N)C(=O)N[C@@H](CCCNC(=N)N)C(=O)N[C@@H](CO)C(=O)N[C@@H](C)C(=O)N[C@@H](CC(=O)O)C(=O)N[C@H](C(=O)N[C@@H](Cc1ccccc1)C(=O)N[C@H](C(N)=O)[C@@H](C)CC)[C@@H](C)CC)C(C)C)[C@@H](C)O` [Compound 11] (Palmitoyl-TVFRSHE[dK]RRSADIFI-NH2; C-terminus assumed), in series [1], it took 65.1 nM to reach a half-maximal effect (EC50); the Ranking entry was “*** (EC50<100 nM and % histamine>35%)”; the percent intrinsic activity at 0.3 µM came to 68%. Moreover, in series [2], the “Histimine (% vs. 48/40)” value came out at 38%.
Regarding `CCCCCCCCCCCCCCCC(=O)N[C@H](C(=O)N[C@H](C(=O)N[C@@H](Cc1ccccc1)C(=O)N[C@@H](CCCNC(=N)N)C(=O)N[C@@H](CO)C(=O)N[C@@H](CO)C(=O)N[C@@H](CCC(=O)O)C(=O)N[C@H](CCCCN)C(=O)N[C@@H](CCCNC(=N)N)C(=O)N[C@@H](CCCNC(=N)N)C(=O)N[C@@H](CO)C(=O)N[C@@H](C)C(=O)N[C@@H](CC(=O)O)C(=O)N[C@@H](CCC(N)=O)C(=O)N[C@@H](Cc1ccccc1)C(=O)N[C@H](C(N)=O)[C@@H](C)CC)C(C)C)[C@@H](C)O` [Compound 30] (Palmitoyl-TVFRSSE[dK]RRSADQFI-NH2; C-terminus assumed), in series [1], the Ranking result is “*** (EC50<100 nM and % histamine>35%)”; the percent intrinsic activity at 0.3 µM is 98%. Moreover, in series [1] (inhibition of NKH477 stimulated cAMP, APJ-hTREX cells, read-out: APJ-hTREX EC50), the EC50 turned out to be 84.6 nM. In addition, the “Histimine (% vs. 48/40)” value in series [2] was found to be 63%.
With `CCCCCCCCCCCCCCCC(=O)N[C@H](C(=O)N[C@H](C(=O)N[C@@H](Cc1ccccc1)C(=O)N[C@@H](CCCNC(=N)N)C(=O)N[C@@H](CO)C(=O)N[C@@H](CO)C(=O)N1CCC[C@H]1C(=O)N[C@H](CCCCN)C(=O)N[C@@H](CCCNC(=N)N)C(=O)N[C@@H](CCCNC(=N)N)C(=O)N[C@@H](CO)C(=O)N[C@@H](C)C(=O)N[C@@H](CC(=O)O)C(=O)N[C@H](C(=O)N[C@@H](Cc1ccccc1)C(=O)N[C@H](C(N)=O)[C@@H](C)CC)[C@@H](C)CC)C(C)C)[C@@H](C)O` [Compound 47] (Palmitoyl-TVFRSSP[dK]RRSADIFI-NH2; C-terminus assumed), in series [1], the response was half-maximal at 13.3 nM (EC50); the Ranking result was “*** (EC50<100 nM and % histamine>35%)”; the percent intrinsic activity at 0.3 µM amounted to 83%. For the same compound, the “Histimine (% vs. 48/40)” value in series [2] turned out to be 60%.
As for `CCCCCCCCCCCCCCCC(=O)N[C@H](C(=O)N[C@H](C(=O)N[C@@H](Cc1ccccc1)C(=O)N[C@@H](CCCNC(=N)N)C(=O)N[C@@H](CO)C(=O)N[C@@H](CO)C(=O)N[C@@H](CCC(=O)O)C(=O)N[C@H](CCCCN)C(=O)N[C@@H](CCCNC(=N)N)C(=O)N[C@@H](CCCNC(=N)N)C(=O)N[C@@H](CO)C(=O)N[C@@H](C)C(=O)N[C@@H](CC(=O)O)C(=O)N[C@@H](Cc1c[nH]cn1)C(=O)N[C@@H](Cc1ccccc1)C(=O)N[C@H](C(N)=O)[C@@H](C)CC)C(C)C)[C@@H](C)O` [Compound 17] (Palmitoyl-TVFRSSE[dK]RRSADHFI-NH2), the percent intrinsic activity at 0.3 µM in series [1] stood at 83%. In addition, the “Histimine (% vs. 48/40)” value in series [2] worked out at 113%.
Turning to `CCCCCCCCCCCCCCCC(=O)N[C@H](C(=O)N[C@H](C(=O)N[C@@H](Cc1ccccc1)C(=O)NC(C)(C)C(=O)N[C@@H](CO)C(=O)N[C@@H](CO)C(=O)N[C@@H](CCC(=O)O)C(=O)N[C@H](CCCCN)C(=O)N[C@@H](CCCNC(=N)N)C(=O)N[C@@H](CCCNC(=N)N)C(=O)N[C@@H](CO)C(=O)N[C@@H](C)C(=O)N[C@@H](CC(=O)O)C(=O)N[C@H](C(=O)N[C@@H](Cc1ccccc1)C(=O)N[C@H](C(N)=O)[C@@H](C)CC)[C@@H](C)CC)C(C)C)[C@@H](C)O` [Compound 58] (Palmitoyl-TVF[Aib]SSE[dK]RRSADIFI-NH2; C-terminus assumed), in series [1], the EC50 turned out to be 10000 nM; the Ranking entry was “* (EC50>500 nM and % histamine>35%)”; the percent intrinsic activity at 0.3 µM was 54%. Besides, the “Histimine (% vs. 48/40)” value in series [2] turned out to be 11%.
As to `CCCCCCCCCCCCCCCC(=O)N[C@H](C(=O)N[C@H](C(=O)N[C@@H](Cc1ccccc1)C(=O)N[C@@H](CCCNC(=N)N)C(=O)N[C@@H](CO)C(=O)N[C@@H](CO)C(=O)N[C@@H](CCC(=O)O)C(=O)N[C@H](CCCCN)C(=O)N[C@@H](CCCNC(=N)N)C(=O)N[C@@H](CCCNC(=N)N)C(=O)N[C@@H](CO)C(=O)NC(C)(C)C(=O)N[C@@H](CC(=O)O)C(=O)N[C@H](C(=O)N[C@@H](Cc1ccccc1)C(=O)N[C@H](C(N)=O)[C@@H](C)CC)[C@@H](C)CC)C(C)C)[C@@H](C)O` [Compound 64, TVFRSSEkRRS(Aib)DIFI] (Palmitoyl-TVFRSSE[dK]RRS[Aib]DIFI-NH2), the percent intrinsic activity at 0.3 µM in series [1] was found to be 60%. Moreover, the “Histimine (% vs. 48/40)” value in series [2] is reported as 105%.
As to `CCCCCCCCCCCCCCCC(=O)N[C@H](C(=O)N[C@H](C(=O)N[C@@H](Cc1ccccc1)C(=O)N[C@@H](CCCNC(=N)N)C(=O)N[C@@H](CO)C(=O)N[C@@H](CO)C(=O)N[C@@H](CCC(=O)O)C(=O)N[C@H](CCCCN)C(=O)N[C@@H](Cc1ccccc1)C(=O)N[C@@H](CCCNC(=N)N)C(=O)N[C@@H](CO)C(=O)N[C@@H](C)C(=O)N[C@@H](CC(=O)O)C(=O)N[C@H](C(=O)N[C@@H](Cc1ccccc1)C(=O)N[C@H](C(N)=O)[C@@H](C)CC)[C@@H](C)CC)C(C)C)[C@@H](C)O` [Compound 3] (Palmitoyl-TVFRSSE[dK]FRSADIFI-NH2; C-terminus assumed), in series [1], the EC50 turned out to be 243 nM; the Ranking entry is “**** (EC50 101-500 nM and % histamine<35%)”; the percent intrinsic activity at 0.3 µM came out at 71%. Besides, the “Histimine (% vs. 48/40)” value in series [2] was determined as 29%.
On to `CCCCCCCCCCCCCCCC(=O)N[C@H](C(=O)N[C@H](C(=O)N[C@@H](Cc1ccccc1)C(=O)N[C@@H](CCCNC(=N)N)C(=O)N[C@@H](CO)C(=O)N[C@@H](CO)C(=O)N[C@@H](CCC(=O)O)C(=O)N[C@H](CCCCN)C(=O)N[C@@H](CCCNC(=N)N)C(=O)NC(C)(C)C(=O)N[C@@H](CO)C(=O)N[C@@H](C)C(=O)N[C@@H](CC(=O)O)C(=O)N[C@H](C(=O)N[C@@H](Cc1ccccc1)C(=O)N[C@H](C(N)=O)[C@@H](C)CC)[C@@H](C)CC)C(C)C)[C@@H](C)O` [Compound 62, TVFRSSEkR(Aib)SADIFI] (Palmitoyl-TVFRSSE[dK]R[Aib]SADIFI-NH2), for which, in series [1], the percent intrinsic activity at 0.3 µM came out at 51%. Moreover, the “Histimine (% vs. 48/40)” value in series [2] is 25%.
With `CCCCCCCCCCCCCCCC(=O)N[C@H](C(=O)N[C@H](C(=O)N[C@@H](Cc1ccccc1)C(=O)N[C@@H](CCCNC(=N)N)C(=O)N[C@@H](CO)C(=O)N[C@@H](CO)C(=O)N[C@@H](CCC(=O)O)C(=O)N[C@H](CCCCN)C(=O)N[C@@H](CCCNC(=N)N)C(=O)N[C@@H](CCCNC(=N)N)C(=O)N[C@@H](CO)C(=O)N[C@@H](C)C(=O)N[C@@H](CC(=O)O)C(=O)N[C@H](C(=O)N[C@@H](Cc1ccccc1)C(=O)NC(C)(C)C(N)=O)[C@@H](C)CC)C(C)C)[C@@H](C)O` [Compound 67, TVFRSSEkRRSADIF(Aib)] (Palmitoyl-TVFRSSE[dK]RRSADIF[Aib]-NH2), in series [1], the percent intrinsic activity at 0.3 µM came to 46%. In addition, in series [2], the “Histimine (% vs. 48/40)” value is on record as 50%.
The matching figures for `CCCCCCCCCCCCCCCC(=O)N[C@H](C(=O)N[C@H](C(=O)N[C@@H](Cc1ccccc1)C(=O)N[C@@H](CCCNC(=N)N)C(=O)N[C@@H](CO)C(=O)N[C@@H](CO)C(=O)N[C@@H](CCC(=O)O)C(=O)N[C@H](CCCCN)C(=O)N[C@@H](CCCNC(=N)N)C(=O)N[C@@H](CCCNC(=N)N)C(=O)N[C@@H](CO)C(=O)N[C@@H](C)C(=O)N[C@@H](CCC(N)=O)C(=O)N[C@H](C(=O)N[C@@H](Cc1ccccc1)C(=O)N[C@H](C(N)=O)[C@@H](C)CC)[C@@H](C)CC)C(C)C)[C@@H](C)O` [Compound 29] (Palmitoyl-TVFRSSE[dK]RRSAQIFI-NH2): 9% and 92%.
Taken in the same sequence, the figures for `CCCCCCCCCCCCCCCC(=O)N[C@H](C(=O)N[C@H](C(=O)N[C@@H](Cc1ccccc1)C(=O)N[C@@H](CCCNC(=N)N)C(=O)N[C@@H](CO)C(=O)N[C@@H](CO)C(=O)N[C@@H](CCC(=O)O)C(=O)N[C@H](CCCCN)C(=O)N[C@@H](CCCNC(=N)N)C(=O)N[C@@H](CCCNC(=N)N)C(=O)N[C@@H](CO)C(=O)N[C@@H](CC(=O)O)C(=O)N[C@@H](CC(=O)O)C(=O)N[C@H](C(=O)N[C@@H](Cc1ccccc1)C(=O)N[C@H](C(N)=O)[C@@H](C)CC)[C@@H](C)CC)C(C)C)[C@@H](C)O` [Compound 39] (Palmitoyl-TVFRSSE[dK]RRSDDIFI-NH2) were 27% and 8%.
